Results on five compounds are retold here after patent US8703800B2, “Nitrate and diazeniumdiolate derivatives of pioglitazone” (Cardiolynx AG, priority 2010, dated 2014).

In data set [1] the test system is rat aortic ring segments preconstricted with phenylephrine. Nature of the data set: Isometric tension studies: vasodilation of preconstricted rat aortic ring segments. In kind it is cell-based. To be noted: for EC50: read-out: pD2-value (vasodilatory potency) (converted). On the procedure: Vasodilation of rat aortic ring segments preconstricted with phenylephrine, Example 2, Table 1. X-axis: relaxation in %; y-axis: log concentration (log M).
For in vitro characterization of the new pioglitazone nitrate (1) of Example 1, vasodilatory potency was determined by isometric tension studies. According to a published procedure rat aortic ring segments were preconstricted by the alpha-receptor-agonist phenylephrine [Daiber, A. et al., Mol Pharmacol 66 (2004), 1372-1382; Wendt, M. et al., Free Radic Biol Med 39 (2005), 381-391; Munzel, T. et al., J Clin Invest 95 (1995), 187-194]. After reaching a stable preconstriction of vascular tone, the vessels were dose-dependently vasodilated until the final tone at the highest added concentration of the vasodilator was reached. The vasodilators were added at half-logarithmic concentrations starting at 10^−8 M (=10 nanomolar). Vasodilatory potency was compared creating a concentration-relaxation curve. The data are based on experiments with aorta from at least 6 rats on 3 different days.

For data set [2], the system named is isolated rat cardiac mitochondria. Description: ROS/RONS formation in isolated mitochondria (L-012 chemiluminescence). In kind it is biochemical. The source says: Reactive oxygen and nitrogen species formation in response to in vitro challenge of isolated rat cardiac mitochondria based on reaction of the chemiluminescence dye L-012 (a luminal analogue), Example 3, Table 2. X-axis: compounds tested with concentration [μM]; y-axis: photons n per 1 sec of emission of chemiluminescence light (ECL).
Vascular oxidative stress is a well-known side effect of nitrate tolerance (an adverse condition that develops under chronic nitrate therapy). Therefore, the induction of reactive oxygen and nitrogen species formation in response to in vitro challenges with the test compounds was assessed in isolated mitochondria according to a published procedure [Daiber, A. et al., Mol Pharmacol 66 (2004), 1372-1382; Daiber, A. et al., Biochem Biophys Res Commun 338 (2005), 1865-1874; Daiber, A. et al., Mol Pharmacol 68 (2005), 579-588]. The assay is based on the reaction of the chemiluminescence dye L-012 (a luminol analogue) with reactive oxygen and nitrogen species (RONS, e.g. superoxide anion radicals, peroxynitrite anions or nitrogen dioxide radicals) and subsequent emission of chemiluminescence light (ECL). The signal is counted in photons/time (=counts/30s). The data are based on experiments with cardiac mitochondria from at least 6 rats on 3 different days.

[3] abbreviates: rat aortic rings preconstricted with phenylephrine.
[4] abbreviates: rat aortic rings preconstricted with phenylephrine, concentration-relaxation curve.

Each structure is given as a SMILES string. Like-named read-outs stand apart in the source and are kept apart here.

Consider `CCc1ccc(CCOc2ccc(CC3SC(=O)NC3=O)cc2)nc1` (racemic) [Pioglitazone], for which the “Isometric tension, relaxation (Mean ± SEM)” value came out at 55.47 ± 5.98% in data set [1] (Log [M] −3.5); 22.40 ± 3.34% in data set [1] (Log [M] −4); 11.19 ± 3.82% in data set [1] (Log [M] −4.5); 8.30 ± 3.49% in data set [1] (Log [M] −5); 5.63 ± 3.15% in data set [1] (Log [M] −5.5); 5.40 ± 2.88% in data set [1] (Log [M] −6). Moreover, the “Isometric tension, relaxation (Mean ± SEM)” value is reported as 4.14 ± 2.57% in data set [1] (Log [M] −6.5), 3.42 ± 1.68% in data set [1] (Log [M] −7), 2.92 ± 1.49% in data set [1] (Log [M] −7.5) and 0% in data set [1] (Log [M] −8). Besides, the “Vasodilatory potency, result in words” value in data set [1] (setting [3]) was “weak relaxing effects”. In data set [1] (setting [4]), the EC50 was about 316 µM. Further, the “ROS formation, Mean” value in data set [2] (rat, 10 μM) was 563 counts/1 s; in data set [2] (rat, 100 μM) it was 874.5 counts/1 s; in data set [2] (rat, 1000 μM) it was 801.7 counts/1 s.
Take `O=[N+]([O-])OCC(CO[N+](=O)[O-])O[N+](=O)[O-]` [Glycerol trinitrate]: the “ROS formation, Mean” value in data set [2] (Conc. 10 μM, basal 627.7) was determined as 597.7 counts/1 s; in data set [2] (Conc. 100 μM, basal 627.7) it was 898.5 counts/1 s; in data set [2] (Conc. 1000 μM, basal 627.7) it was 2762 counts/1 s.
`O=[N+]([O-])O[C@@H]1CO[C@H]2[C@@H]1OC[C@@H]2O` [ISMN, Isosorbide-5-mononitrate]: the “Isometric tension, relaxation (Mean ± SEM)” value in data set [1] (Log [M] −2) was found to be 98.77 ± 0.75%; in data set [1] (Log [M] −2.5) it was 94.91 ± 1.28%; in data set [1] (Log [M] −3) it was 82.81 ± 3.45%; in data set [1] (Log [M] −3.5) it was 64.17 ± 4.11%; in data set [1] (Log [M] −4) it was 43.46 ± 3.28%; in data set [1] (Log [M] −4.5) it was 16.76 ± 2.29%. The “Isometric tension, relaxation (Mean ± SEM)” value in data set [1] (Log [M] −5) is given as 9.29 ± 2.23%; in data set [1] (Log [M] −5.5) it was 5.47 ± 1.95%; in data set [1] (Log [M] −6), 3.73 ± 1.39%; in data set [1] (Log [M] −6.5) it was 3.86 ± 1.04%; in data set [1] (Log [M] −7), 0%.
Turning to `O=C(NCCO[N+](=O)[O-])OCCl` [Linker 2, chloromethyl N-2-nitrooxyethylcarbamate], the “Isometric tension, relaxation (Mean ± SEM)” value in data set [1] (Log [M] −3.5) was 96.18 ± 2.20%; in data set [1] (Log [M] −4) it was 91.00 ± 5.36%; in data set [1] (Log [M] −4.5), 86.66 ± 6.04%; in data set [1] (Log [M] −5), 80.97 ± 6.47%; in data set [1] (Log [M] −5.5) it was 68.37 ± 6.89%; in data set [1] (Log [M] −6) it was 51.19 ± 6.35%. The “Isometric tension, relaxation (Mean ± SEM)” value in data set [1] (Log [M] −6.5) came to 30.73 ± 5.12%; in data set [1] (Log [M] −7) it was 16.85 ± 3.29%; in data set [1] (Log [M] −7.5), 8.25 ± 2.09%; in data set [1] (Log [M] −8) it was 0%. For the same compound, the “pD2-value (vasodilatory potency)” value in data set [1] (setting [4]) was “approximately 6”. The “ROS formation, Mean” value worked out at 622.5 counts/1 s in data set [2] (Conc. 10 μM, basal 627.7); 674.7 counts/1 s in data set [2] (Conc. 100 μM, basal 627.7); 1395.8 counts/1 s in data set [2] (Conc. 1000 μM, basal 627.7). The “Effect on RONS formation, result in words” value in data set [2] (in vitro challenge of isolated rat cardiac mitochondria) is listed as “has also some increasing effect”.
Turning to `CCc1ccc(CCOc2ccc(CC3SC(=O)N(COC(=O)NCCO[N+](=O)[O-])C3=O)cc2)nc1` (stereo not drawn) [compound 1], the “Isometric tension, relaxation (Mean ± SEM)” value in data set [1] (Log [M] −3.5) is given as 98.13 ± 5.98%; in data set [1] (Log [M] −4) it was 87.22 ± 3.34%; in data set [1] (Log [M] −4.5) it was 79.07 ± 3.82%; in data set [1] (Log [M] −5), 70.11 ± 3.49%; in data set [1] (Log [M] −5.5), 57.49 ± 3.15%; in data set [1] (Log [M] −6), 43.34 ± 2.88%. For the same compound, the “Isometric tension, relaxation (Mean ± SEM)” value in data set [1] (Log [M] −6.5) is recorded as 27.72 ± 2.57%; in data set [1] (Log [M] −7) it was 12.82 ± 1.68%; in data set [1] (Log [M] −7.5), 2.65 ± 1.49%; in data set [1] (Log [M] −8), 0%. The “Vasodilatory potency, result in words” value in data set [1] (setting [3]) is recorded as “even more active than isosorbide dinitrate”. Further, the EC50 in data set [1] (setting [4]) was about 1 µM. The “Effect on RONS formation, result in words” value in data set [2] is recorded as “does not have a pronounced effect on RONS formation”. Also, the “ROS formation, Mean” value in data set [2] (rat, 10 μM) is 697.3 counts/1 s; in data set [2] (rat, 100 μM), 609.8 counts/1 s; in data set [2] (rat, 1000 μM), 889.2 counts/1 s.
